Tested on: PD-L1 on CD34+ cells
Assay: Prostaglandin library screening and FACS of PD-L1 on human CD34+ cells
Type: cell-based
Conditions: for PD-L1 expression by FACS analysis: CD34+ cells, 10 μM pulsed at 24 and 48 hours
Description: FIGS. 17A-17J show prostaglandins enhance PD-L1 expression on human CD34^+ cells. (FIG. 17A-17B) Results of screening of a prostaglandin small molecule library tested for the ability to upregulate PD-L1 (MFI) on CD34^+ cells obtained from T1D patients. The schematic of the experimental design is shown in (A). The 3-color coding shown in (FIG. 17B) represents lowest PD-L1 MFI values (blue), median PD-L1 MFI values (pink) and highest PD-L1 MFI values (red). (FIG. 17C-17D) Representative flow cytometric analysis and quantitative bar graph of PD-L1 expression on CD34^+ cells from T1D patients pre- and post-pharmacologic modulation with PGE2 as compared to CD34^+ cells obtained from healthy controls. (FIG. 17E) PD-L1 and CXCR4 expression (mRNA) fold change was quantified for CD34^+ cells pre- and post-modulation with PGE2. (FIG. 17F) Migration assay using CD34^+ cells pre- and post-modulation with PGE2. (FIG. 17G) Confocal imaging of CD34^+ cells pre- and post-modulation with PGE2, showing DAPI (in blue) and PD-L1 (in green) staining. 63× magnification. Scale bar, 50 (FIG. 17H) IDO-1 expression (mRNA) fold change was quantified for CD34^+ cells pre- and post-modulation with PGE2. (FIG. 17I-17J) Representative flow cytometric analysis (FIG. 17I) and quantitative bar graph (FIG. 17J) of PD-L1 expression on CD34^+ cells from T1D patients pre- and post-pharmacologic modulation with 4 small molecule PGE2 agonists. All data are expressed as mean±SEM. *P<0.05, **P<0.001. Abbreviations: MFI, mean fluorescence intensity.
Pharmacological modulation of human CD34+ cells. 1×105 of isolated human CD34+ HSPCs (purity 99%) were cultured in 200 μl of StemSpan SFEM II media (SEMCELL Technologies Inc., Cambridge, MA, USA), and each compound in the Prostaglandin Screening Library II (Cayman Chemicals, Ann Arbor, MI), was added individually at day 0 and at day 1 at a concentration of 10 μM as previously reported by the inventors and others (9, 21). In another assay, isolated CD34+ cells from freshly isolated human PBMCs or from cryopreserved PBMCs, and processed as described earlier, were cultured in the presence of a cocktail of cytokines containing: 10 μg/ml heparin (SEMCELL Technologies Inc., Cambridge, MA, USA), 10 ng/ml human SCF (Miltenyi Biotec, San Diego, CA), 20 ng/ml human TPO (Miltenyi Biotec, San Diego, CA), 10 ng/ml human FGF-1 (Miltenyi Biotec, San Diego, CA), 100 ng/ml IGFBP2 (R&D Systems, Inc., Minneapolis, MN), and 500 ng/ml Angptl3 (R&D Systems, Inc., Minneapolis, MN). PGE2 (PromoKine, PromoCell Gmbh, Germany) was added by pulsing the culture at 0, 24h, 72h and 6 days with 2 μl of diluted PGE2 (10 μM). Cells were cultured for 7 days at 37° C. in 5% CO2, and CD34+ cells were then subjected to FACS analysis and were run on a FACSCelesta™ (Becton Dickinson, Franklin Lakes, NJ). Data were analyzed using FlowJo software version 8.7.3 (Treestar, Ashland, OR). The different cytokines used here and their related concentration as well as the choice of the incubation timing was used as previously reported in the literature (22).
Prostaglandin library screening. PGE2 has been described as a small molecule known to enhance the homing and engraftment of HSPCs. It was therefore sought to screen all known types of prostaglandins using the Prostaglandin Screening Library II, which contains 64 small molecules. Each small molecule contained in the library was first screened for its capacity to upregulate PD-L1 in human CD34+ cells isolated from T1D patients (FIG. 17A-17B). CD34+ cells isolated from T1D patients were cultured in StemSpan SFEMII and pulsed with each PG (prostaglandin) small molecule contained in the aforementioned library at a concentration of 10 μM at 24 and 48h. Using FACS analysis, the MFI (mean fluorescence intensity) of PD-L1 expression was calculated following treatment with each small molecule used to modulate CD34+ cells as compared to untreated/unmodulated CD34+ cells (FIG. 17B). […]

| Structure (SMILES) | capacity to upregulate PD-L1 (MFI) in library screening (10 μM, CD34+ cells from T1D patients) | PD-L1 expression by FACS analysis |
| --- | --- | --- |
| CCCCC(C)(C)[C@H](O)/C=C/[C@H]1[C@H](O)CC(=O)[C@@H]1C/C=C\CCCC(=O)O [16,16-dimethyl PGE2] | strongest capacity | robust upregulation |
| CCCCC[C@H](O)/C=C/[C@H]1[C@H](O)CC(=O)[C@@H]1C/C=C\CCCC(=O)O [PGE2, prostaglandin E2] | – | slight increase |

Source: patent US11879137B2, “Treatment of type 1 diabetes and autoimmune diseases or disorders” (THE CHILDREN'S MEDICAL CENTER CORPORATION, priority 2017, dated 2024)
